# Reference: US6737383B1, “Herbicidal oxadiazolidines” (priority 1999, dated 2004)
# Tests used:
# [1] = system: rape; assay: Test B pre/postemergence rape; format: in vivo, Brassica napus
# Outline: (§1)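 Response is a visual 0-to-10 score relative to untreated plants, where 0 means no effect and 10 means complete control, taken twelve to sixteen days after application. Treatments went onto soil at planting and onto foliage of 1- to 4-leaf plants, using a surfactant-containing non-phytotoxic solvent.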
# [2] = system: smallflower flatsedge; assay: Test B flood test smallflower flatsedge; format: in vivo, Cyperus difformis
# Outline: (§2)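 Flood test on plants grown to the 2-leaf stage; treated plants kept in greenhouse twelve to sixteen days, then visually rated against controls on a 0 (no effect) to 10 (complete control) scale.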
# [3] = system: giant foxtail; assay: Test B pre/postemergence giant foxtail; format: in vivo, Setaria faberii
# Outline: as §1
# [4] = system: rice; assay: Test B flood test rice; format: in vivo, Oryza sativa
# Outline: as §2
# [5] = system: bamyardgrass; assay: Test B flood test barnyardgrass; format: in vivo, Echinochloa crus-galli
# Outline: as §2
# [6] = system: sugar beet; assay: Test B pre/postemergence sugar beet; format: in vivo, Beta vulgaris
# Outline: as §1
# [7] = system: purple nutsedge; assay: Test B pre/postemergence purple nutsedge; format: in vivo, Cyperus rotundus
# Outline: as §1
# [8] = system: morningglory; assay: Test B pre/postemergence morningglory; format: in vivo, Ipomoea hederacea
# Outline: as §1
# [9] = system: velvetleaf; assay: Test B pre/postemergence velvetleaf; format: in vivo, Abutilon theophrasti
# Outline: as §1
# [10] = system: soybean; assay: Test B pre/postemergence soybean; format: in vivo, Glycine max
# Outline: as §1
# [11] = system: corn; assay: Test B pre/postemergence corn; format: in vivo, Zea mays
# Outline: as §1
# [12] = system: surinam grass; assay: Test B pre/postemergence surinam grass; format: in vivo, Brachiaria decumbens
# Outline: as §1
# [13] = system: blackgrass; assay: Test B pre/postemergence blackgrass; format: in vivo, Alopecurus myosuroides
# Outline: as §1
# [14] = system: duck salad; assay: Test B flood test duck salad; format: in vivo, Heteranthera limosa
# Outline: as §2
# [15] = system: bedstraw; assay: Test B pre/postemergence bedstraw; format: in vivo, Galium aparine; conditions: for Bedstraw plant response rating: Postemergence
# Outline: as §1
# [16] = system: pigweed; assay: Test B pre/postemergence pigweed; format: in vivo, Amaranthus retroflexus
# Outline: as §1
# [17] = Postemergence, Rate 125 g/ha, scale 0 to 10, 0 is no effect, 10 is complete control
# [18] = Postemergence, Rate 250 g/ha, scale 0 to 10
# [19] = Preemergence, Rate 62 g/ha, scale of 0 to 10 where 0 is no effect and 10 is complete control
# [20] = Preemergence, Rate 125 g/ha, scale 0 to 10, 0 is no effect, 10 is complete control
# [21] = Preemergence, Rate 250 g/ha, scale 0 to 10, 0 is no effect, 10 is complete control
# [22] = Preemergence, Rate 500 g/ha, scale 0 to 10, 0 is no effect, 10 is complete control
# [23] = Rate 62 g/ha, Postemergence, scale 0 to 10, 0 no effect, 10 complete control
# [24] = Rate 62 g/ha, flood test species, Pre-emergence, visual evaluation after twelve to sixteen days
# [25] = Rate 125 g/ha, under heading Pre-emergence, flood test species, visual evaluation after twelve to sixteen days
# [26] = Rate 250 g/ha, Pre-emergence (flood test species), scale 0 to 10, 0 is no effect, 10 is complete control
# [27] = Rate 500 g/ha, Pre-emergence, flood test species, scale 0 to 10 (0 no effect, 10 complete control)
# [28] = Postemergence, Rate 500 g/ha, scale of 0 to 10 where 0 is no effect and 10 is complete control
structure (smiles),measurement,setting,value
CC(C)N(C(=O)n1oc(=O)n(Cc2cnc(Cl)s2)c1=O)c1ccc(F)cc1 [Compound 482],Rape plant response rating,[1]; [17],0
same,Rape plant response rating,[1]; [18],0
same,"Plant response rating, Rape",[1]; [19],0
same,Rape plant response rating,[1]; [20],0
same,Rape plant response rating,[1]; [21],0
same,Rape plant response rating,[1]; [22],0
same,Rape plant response rating,[1]; [23],0
same,"Plant response rating, S. Flatsedge (0 to 10 scale, 0 is no effect, 10 is complete control)",[2]; [24],0
same,"S. Flatsedge plant response rating (0 to 10 scale, 0 is no effect, 10 is complete control)",[2]; [25],0
same,S. Flatsedge plant response rating,[2]; [26],0
same,S. Flatsedge plant response rating,[2]; [27],0
same,Giant foxtail plant response rating,[3]; [17],0
same,Giant foxtail plant response rating,[3]; [18],0
same,Giant foxtail plant response rating,[3]; [28],2
same,"Plant response rating, Giant foxtail",[3]; [19],1
same,Giant foxtail plant response rating,[3]; [20],6
same,Giant foxtail plant response rating,[3]; [21],8
same,Giant foxtail plant response rating,[3]; [22],9
same,Giant foxtail plant response rating,[3]; [23],0
same,"Plant response rating, Rice (0 to 10 scale, 0 is no effect, 10 is complete control)",[4]; [24],0
same,"Rice plant response rating (0 to 10 scale, 0 is no effect, 10 is complete control)",[4]; [25],0
same,Rice plant response rating,[4]; [26],0
same,Rice plant response rating,[4]; [27],0
same,"Plant response rating, Barnyardgrass (0 to 10 scale, 0 is no effect, 10 is complete control)",[5]; [24],0
same,"Barnyardgrass plant response rating (0 to 10 scale, 0 is no effect, 10 is complete control)",[5]; [25],0
same,Barnyardgrass plant response rating,[5]; [26],0
same,Barnyardgrass plant response rating,[5]; [27],0
same,Sugarbeets plant response rating,[6]; [17],0
same,Sugarbeets plant response rating,[6]; [18],0
same,"Plant response rating, Sugarbeets",[6]; [19],0
same,Sugarbeets plant response rating,[6]; [20],0
same,Sugarbeets plant response rating,[6]; [21],0
same,Sugarbeets plant response rating,[6]; [22],0
same,Sugarbeets plant response rating,[6]; [23],0
same,Nutsedge plant response rating,[7]; [17],0
same,Nutsedge plant response rating,[7]; [18],0
same,"Plant response rating, Nutsedge",[7]; [19],0
same,Nutsedge plant response rating,[7]; [20],0
same,Nutsedge plant response rating,[7]; [21],0
same,Nutsedge plant response rating,[7]; [22],0
same,Nutsedge plant response rating,[7]; [23],0
same,Morningglory plant response rating,[8]; [17],7
same,Morningglory plant response rating,[8]; [18],8
same,"Plant response rating, Morningglory",[8]; [19],0
same,Morningglory plant response rating,[8]; [20],0
same,Morningglory plant response rating,[8]; [21],0
same,Morningglory plant response rating,[8]; [22],0
same,Morningglory plant response rating,[8]; [23],5
same,Velvetleaf plant response rating,[9]; [17],0
same,Velvetleaf plant response rating,[9]; [18],0
same,"Plant response rating, Velvetleaf",[9]; [19],0
same,Velvetleaf plant response rating,[9]; [20],0
same,Velvetleaf plant response rating,[9]; [21],0
same,Velvetleaf plant response rating,[9]; [22],2
same,Velvetleaf plant response rating,[9]; [23],0
same,Soybean plant response rating,[10]; [17],1
same,Soybean plant response rating,[10]; [18],1
same,"Plant response rating, Soybean",[10]; [19],0
same,Soybean plant response rating,[10]; [20],0
same,Soybean plant response rating,[10]; [21],0
same,Soybean plant response rating,[10]; [22],0
same,Soybean plant response rating,[10]; [23],1
same,Corn plant response rating,[11]; [17],0
same,Corn plant response rating,[11]; [18],0
same,Corn plant response rating,[11]; [28],0
same,"Plant response rating, Corn",[11]; [19],0
same,Corn plant response rating,[11]; [20],0
same,Corn plant response rating,[11]; [21],0
same,Corn plant response rating,[11]; [22],0
same,Corn plant response rating,[11]; [23],0
same,B. signalgrass plant response rating,[12]; [17],0
same,B. signalgrass plant response rating,"[12]; Postemergence, Rate 250 g/ha, scale 0 to 10, 0 no effect, 10 complete control",0
same,B. signalgrass plant response rating,[12]; [28],0
same,"Plant response rating, B. signalgrass",[12]; [19],0
same,B. signalgrass plant response rating,[12]; [20],0
same,B. signalgrass plant response rating,[12]; [21],0
same,B. signalgrass plant response rating,[12]; [22],0
same,B. signalgrass plant response rating,[12]; [23],0
same,Blackgrass plant response rating,[13]; [17],0
same,Blackgrass plant response rating,[13]; [18],0
same,Blackgrass plant response rating,[13]; [28],0
same,"Plant response rating, Blackgrass",[13]; [19],0
same,Blackgrass plant response rating,[13]; [20],0
same,Blackgrass plant response rating,[13]; [21],0
same,Blackgrass plant response rating,[13]; [22],4
same,Blackgrass plant response rating,[13]; [23],0
same,"Plant response rating, Ducksalad (0 to 10 scale, 0 is no effect, 10 is complete control)",[14]; [24],0
same,"Ducksalad plant response rating (0 to 10 scale, 0 is no effect, 10 is complete control)",[14]; [25],0
same,Ducksalad plant response rating,[14]; [26],0
same,Ducksalad plant response rating,[14]; [27],0
same,Bedstraw plant response rating,"[15]; Rate 125 g/ha, scale 0 to 10, 0 is no effect, 10 is complete control",0
same,Bedstraw plant response rating,"[15]; Rate 250 g/ha, scale 0 to 10",0
same,"Plant response rating, Bedstraw",[15]; [19],0
same,Bedstraw plant response rating,"[15]; Rate 62 g/ha, scale 0 to 10, 0 no effect, 10 complete control",0
same,Redroot pigweed plant response rating,[16]; [17],0
same,Redroot pigweed plant response rating,[16]; [18],2
same,"Plant response rating, Redroot pigweed",[16]; [19],0
same,Redroot pigweed plant response rating,[16]; [20],0
same,Redroot pigweed plant response rating,[16]; [21],0
same,Redroot pigweed plant response rating,[16]; [22],0
same,Redroot pigweed plant response rating,[16]; [23],0
